Reference: ChEMBL document CHEMBL4196140, “Spiro-Phthalides and Isocoumarins Isolated from the Marine-Sponge-Derived Fungus Setosphaeria sp. SCSIO41009” (J Nat Prod, 2018)
Active and inactive are the calls of the source. The calls are words filed in the database; no cut-off is given here.

System: Influenza A virus
Assay: Antiviral activity against Influenza A virus (A/Puerto Rico/8/34(H1N1)) harboring H274Y mutant infected in MDCK cells assessed as inhibition of virus-induced cytopathic effect after 48 hrs by MTT assay
Assay type: functional, organism-based
Details: A/Puerto Rico/8/1934(H1N1)

COc1cc2c(c(O)c1OC)C(=O)O[C@@H]1C[C@H](C[C@@H](C)O)O[C@H]21
inhibition: inactive

COc1cc2c(c(O)c1OC)C(=O)O[C@@H]1C[C@H](CCCO)O[C@H]21
inhibition: inactive

CCC[C@H]1C[C@H](O)[C@@]2(OC(=O)c3c2cc(OC)c(OC)c3O)O1
inhibition: inactive

CCCCc1c(OC)cc(=O)oc1C
inhibition: inactive

CCC[C@@H]1C[C@H]2OC(=O)c3c(cc(OC)c(OC)c3O)[C@@H]2O1
inhibition: inactive

COCc1c(O)cc(C)c2c1Oc1c(C)cc(O)c(C)c1OC2=O
inhibition: inactive

CCCCOCc1c(O)cc(C)c2c1Oc1c(C)cc(O)c(C)c1OC2=O
inhibition: inactive

CCCC(=O)CC[C@H]1OC(=O)c2c1cc(O)c(OC)c2O
inhibition: inactive

CC[C@H](O)[C@H]1C[C@H]2OC(=O)c3c(cc(OC)c(OC)c3O)[C@H]2O1
inhibition: inactive

COc1cc(=O)oc(C)c1CCCC(=O)O
inhibition: inactive

CCCCc1c(OC)cc(=O)oc1CO
inhibition: inactive

COc1cc2c(c(O)c1OC)C(=O)O[C@@H]1C[C@H](CCC(=O)O)O[C@H]21
inhibition: inactive

CCCC(=O)CC[C@@H]1OC(=O)c2c1cc(OC)c(OC)c2O
inhibition: inactive

CCC(O)Cc1c(OC)cc(=O)oc1C (configuration not stated)
inhibition: inactive

CCC[C@H]1C[C@H]2OC(=O)c3c(cc(OC)c(OC)c3O)[C@@H]2O1
inhibition: inactive

CC[C@@H](O)[C@H]1C[C@H]2OC(=O)c3c(cc(OC)c(OC)c3O)[C@H]2O1
inhibition: inactive

CCCCC1=C(OC)C(=O)OC1(C)O (racemic)
inhibition: inactive

CCC[C@@H]1C[C@H]2OC(=O)c3c(cc(O)c(OC)c3O)[C@@H]2O1
inhibition: inactive

CCC[C@H]1C[C@H](O)[C@]2(OC(=O)c3c2cc(OC)c(OC)c3O)O1
inhibition: inactive

COC(=O)CCCc1c(OC)cc(=O)oc1C
inhibition: inactive

COc1cc(=O)oc(C)c1CCC(C)O (configuration not stated)
inhibition: inactive

CCC[C@H]1C[C@H]2OC(=O)c3c(cc(OC)c(O)c3O)[C@H]2O1
inhibition: inactive
